Data on 20 molecules can be found in patent US20150284342A1, “BIS(FLUOROALKYL)-1,4-BENZODIAZEPINONE COMPOUNDS” (BRISTOL-MYERS SQUIBB COMPANY, priority 2011, published 2015).

A short description of series [1]: High Throughput (HT) Metabolic Stability Panel, human liver microsomes. On the procedure:
(§1) Each compound was tested in duplicate.
For orientation: Liver microsomes are a subcellular fraction often used to study metabolism.

The subject of the next series is Notch 1. The experiment in a line: Notch-CBF1 Transactivation Assay (Notch 1). The class given is cell-based. An excerpt: (§2) Table 12 denotes respective DNA quantity for the transfections.
(§3) Duplicates were used for each sample.

Another series deals with Notch 3. The experiment in a line: Notch-CBF1 Transactivation Assay (Notch 3). The class given is cell-based.
Description: as §2, §3

Series [2] is described as follows: High Throughput (HT) Metabolic Stability Panel, mouse liver microsomes. Here is the method:
as §1

Where [3] appears, read: 0.5 μM compound, human liver microsomes, 10 min incubation.
Setting [4] is: read-out: Notch 1 (IC50), HeLa cells, luciferase, rounded to 2 digits.
Setting [5] is: read-out: Notch 3 (IC50), HeLa cells, luciferase, rounded to 2 digits.
Where [6] appears, read: 0.5 μM compound, mouse liver microsomes, 10 min incubation.
The mark [7] stands for this setting: HeLa cells, luciferase, rounded to 2 digits, read-out: Notch 1 (IC50).
The mark [8] stands for this setting: HeLa cells, luciferase, rounded to 2 digits, read-out: Notch 3 (IC50).

Molecules are shown by their SMILES. Where two headings read alike, the source gives them in different places.

What is called IC50 is the concentration at which inhibition is half-maximal. With `CC(C)C[C@@H](C(=O)N[C@H]1N=C(c2ccccc2)c2ccccc2N(C)C1=O)[C@H](CCC(F)(F)F)C(N)=O` [Comparative Compound 22, reference compound], the “0.5 μM HLM (% Remaining)” value in series [1] (setting [3]) came to 39%. Further, the IC50 in the series on Notch 1 (setting [4]) stood at 64 nM; in the series with Notch 3 (setting [5]) it was 48 nM. Besides, in series [2] (setting [6]), the “0.5 μM MsLM (% Remaining)” value worked out at 15%.

As to `C=CC[C@H](C(N)=O)[C@@H](CC(C)C)C(=O)N[C@H]1N=C(c2ccccc2)c2cc(Cl)ccc2N(C)C1=O` [Comparative Compound 23, reference compound], the “0.5 μM HLM (% Remaining)” value in series [1] (setting [3]) was 19%. For the same molecule, the “0.5 μM MsLM (% Remaining)” value in series [2] (setting [6]) is 9.0%.

Turning to `CCCC[C@H](C(N)=O)[C@@H](CC(C)C)C(=O)N[C@H]1N=C(c2ccc(Cl)cc2)c2ccccc2N(C)C1=O` [Comparative Compound 24, reference compound], the “0.5 μM HLM (% Remaining)” value in series [1] (setting [3]) was 21%. The “0.5 μM MsLM (% Remaining)” value in series [2] (setting [6]) came out at 13%.

On to `C=CC[C@H](C(N)=O)[C@@H](CC(C)C)C(=O)N[C@H]1N=C(c2ccccc2)c2ccccc2N(CCC)C1=O` [Comparative Compound 25, reference compound], for which the “0.5 μM HLM (% Remaining)” value in series [1] (setting [3]) is given as 2.7%. Moreover, in series [2] (setting [6]), the “0.5 μM MsLM (% Remaining)” value came to 0.18%.

For the molecule `CN1C(=O)[C@@H](NC(=O)[C@H](CC(F)(F)F)[C@H](CCC(F)(F)F)C(N)=O)N=C(c2ccccc2)c2ccccc21` [Example 3, (2R,3S)—N-((3S)-1-Methyl-2-oxo-5-phenyl-2,3-dihydro-1H-1,4-benzodiazepin-3-yl)-2-(2,2,2-trifluoroethyl)-3-(3,3,3-trifluoropropyl)succinamide], the “0.5 μM HLM (% Remaining)” value in series [1] (setting [3]) is recorded as 84%. Also, the IC50 in the series with Notch 1 (setting [4]) is 3.1 nM; in the series on Notch 3 (setting [5]), 4.7 nM. Also, in series [2] (setting [6]), the “0.5 μM MsLM (% Remaining)” value is listed as 91%.

For the molecule `CN1C(=O)[C@@H](NC(=O)[C@H](CCC(F)(F)F)[C@H](CC(F)(F)F)C(N)=O)N=C(c2ccccc2)c2ccccc21` [Example 4, (2R,3S)—N-((3S)-1-Methyl-2-oxo-5-phenyl-2,3-dihydro-1H-1,4-benzodiazepin-3-yl)-3-(2,2,2-trifluoroethyl)-2-(3,3,3-trifluoropropyl)succinamide], in series [1] (setting [3]), the “0.5 μM HLM (% Remaining)” value is 100%. Besides, the IC50 in the series with Notch 1 (setting [4]) was determined as 1.5 nM; in the series on Notch 3 (setting [5]), 2.5 nM. Moreover, the “0.5 μM MsLM (% Remaining)” value in series [2] (setting [6]) is 91%.

On to `[2H]C([2H])([2H])N1C(=O)[C@@H](NC(=O)[C@H](CCC(F)(F)F)[C@H](CCC(F)(F)F)C(N)=O)N=C(c2ccccc2)c2ccccc21` [Example 5, (2R,3S)—N-((3S)-1-(^2H3)Methyl-2-oxo-5-phenyl-2,3-dihydro-1H-1,4-benzodiazepin-3-yl)-2,3-bis(3,3,3-trifluoropropyl)succinamide], for which, in series [1] (human, microsomes, 10 min, 0.5 µM, pH 7.4), the “0.5 μM HLM (% Remaining)” value came out at 100%. The IC50 with Notch 1 (setting [7]) came to 1.2 nM; in the series with Notch 3 (setting [8]), 5.9 nM. The “0.5 μM MsLM (% Remaining)” value in series [2] (mouse, microsomes, 10 min, 0.5 µM, pH 7.4) was 98%.

Turning to `CN1C(=O)[C@@H](NC(=O)[C@H](CCC(F)(F)F)[C@H](CCC(F)(F)F)C(N)=O)N=C(c2ccccc2)c2cc(Cl)ccc21` [Example 6, (2R,3S)—N-((3S)-7-chloro-1-methyl-2-oxo-5-phenyl-2,3-dihydro-1H-1,4-benzodiazepin-3-yl)-2,3-bis(3,3,3-trifluoropropyl)succinamide], the “0.5 μM HLM (% Remaining)” value in series [1] (setting [3]) was found to be 100%. Further, the IC50 was 6.5 nM in the series on Notch 1 (setting [4]) and 10 nM in the series on Notch 3 (setting [5]). Also, the “0.5 μM MsLM (% Remaining)” value in series [2] (setting [6]) was 100%.

`COc1ccc2c(c1)N(C)C(=O)[C@@H](NC(=O)[C@H](CCC(F)(F)F)[C@H](CCC(F)(F)F)C(N)=O)N=C2c1ccccc1` [Example 7, (2R,3S)—N-((3S)-8-methoxy-1-methyl-2-oxo-5-phenyl-2,3-dihydro-1H-1,4-benzodiazepin-3-yl)-2,3-bis(3,3,3-trifluoropropyl)succinamide]: in series [1] (setting [3]), the “0.5 μM HLM (% Remaining)” value was determined as 93%. The IC50 is 1.5 nM in the series on Notch 1 (setting [7]) and 2.8 nM in the series on Notch 3 (setting [8]). Besides, in series [2] (setting [6]), the “0.5 μM MsLM (% Remaining)” value is on record as 72%.

On to `CN1C(=O)[C@@H](NC(=O)[C@H](CCC(F)(F)F)[C@H](CCC(F)(F)F)C(N)=O)N=C(c2ccccc2)c2ccc(F)cc21` [Example 8, (2R,3S)—N-((3S)-8-fluoro-1-methyl-2-oxo-5-phenyl-2,3-dihydro-1H-1,4-benzodiazepin-3-yl)-2,3-bis(3,3,3-trifluoropropyl)succinamide], for which, in series [1] (setting [3]), the “0.5 μM HLM (% Remaining)” value was determined as 96%. The concentration for half-maximal inhibition (IC50) in the series with Notch 1 (setting [4]) is 4.9 nM; in the series on Notch 3 (setting [5]), 8.1 nM. The “0.5 μM MsLM (% Remaining)” value in series [2] (setting [6]) came to 100%.

As for `COc1ccc2c(c1)C(c1ccccc1)=N[C@H](NC(=O)[C@H](CCC(F)(F)F)[C@H](CCC(F)(F)F)C(N)=O)C(=O)N2C` [Example 9, (2R,3S)—N-((3S)-7-methoxy-1-methyl-2-oxo-5-phenyl-2,3-dihydro-1H-1,4-benzodiazepin-3-yl)-2,3-bis(3,3,3-trifluoropropyl)succinamide], the “0.5 μM HLM (% Remaining)” value in series [1] (setting [3]) stood at 100%. Also, the IC50 in the series on Notch 1 (setting [4]) stood at 4.4 nM; with Notch 3 (setting [5]) it was 8.2 nM. Further, the “0.5 μM MsLM (% Remaining)” value in series [2] (setting [6]) was 87%.

Take `CN1C(=O)[C@@H](NC(=O)[C@H](CCC(F)(F)F)[C@H](CCC(F)(F)F)C(N)=O)N=C(c2ccccc2)c2cc(F)ccc21` [Example 10, (2R,3S)—N-((3S)-7-fluoro-1-methyl-2-oxo-5-phenyl-2,3-dihydro-1H-1,4-benzodiazepin-3-yl)-2,3-bis(3,3,3-trifluoropropyl)succinamide]: in series [1] (setting [3]), the “0.5 μM HLM (% Remaining)” value came to 96%. Further, the results for the IC50 with Notch 1 (setting [4]) and in the series on Notch 3 (setting [5]) were 2.9 nM and 4.6 nM, respectively. In addition, in series [2] (setting [6]), the “0.5 μM MsLM (% Remaining)” value worked out at 98%.

As for `CN1C(=O)[C@@H](NC(=O)[C@H](CCC(F)(F)F)[C@H](CCC(F)(F)F)C(N)=O)N=C(c2ccccc2)c2ccc(Cl)cc21` [Example 11, (2R,3S)—N-((3S)-8-chloro-1-methyl-2-oxo-5-phenyl-2,3-dihydro-1H-1,4-benzodiazepin-3-yl)-2,3-bis(3,3,3-trifluoropropyl)succinamide], the “0.5 μM HLM (% Remaining)” value in series [1] (setting [3]) worked out at 97%. Further, the IC50 was 1.3 nM with Notch 1 (setting [4]) and 2 nM with Notch 3 (setting [5]). Further, the “0.5 μM MsLM (% Remaining)” value in series [2] (setting [6]) is 98%.

Turning to `COc1cccc2c1NC(=O)[C@@H](NC(=O)[C@H](CCC(F)(F)F)[C@H](CCC(F)(F)F)C(N)=O)N=C2c1ccccc1` [Example 12, (2R,3S)—N-((3S)-9-methoxy-2-oxo-5-phenyl-2,3-dihydro-1H-1,4-benzodiazepin-3-yl)-2,3-bis(3,3,3-trifluoropropyl)succinamide], the “0.5 μM HLM (% Remaining)” value in series [1] (setting [3]) amounted to 100%. The IC50 in the series with Notch 1 (setting [4]) worked out at 2.5 nM; with Notch 3 (setting [5]), 4.2 nM. In series [2] (setting [6]), the “0.5 μM MsLM (% Remaining)” value came out at 100%.

For the molecule `COc1ccc2c(c1)NC(=O)[C@@H](NC(=O)[C@H](CCC(F)(F)F)[C@H](CCC(F)(F)F)C(N)=O)N=C2c1ccccc1` [Example 13, (2R,3S)—N-((3S)-8-methoxy-2-oxo-5-phenyl-2,3-dihydro-1H-1,4-benzodiazepin-3-yl)-2,3-bis(3,3,3-trifluoropropyl)succinamide], the “0.5 μM HLM (% Remaining)” value in series [1] (setting [3]) is 100%. Besides, the IC50 with Notch 1 (setting [7]) amounted to 2.1 nM; in the series with Notch 3 (setting [8]), 3.8 nM. For the same molecule, the “0.5 μM MsLM (% Remaining)” value in series [2] (setting [6]) worked out at 97%.

For the molecule `COc1ccc2c(c1)C(c1ccccc1)=N[C@H](NC(=O)[C@H](CCC(F)(F)F)[C@H](CCC(F)(F)F)C(N)=O)C(=O)N2` [Example 14, (2R,3S)—N-((3S)-7-methoxy-2-oxo-5-phenyl-2,3-dihydro-1H-1,4-benzodiazepin-3-yl)-2,3-bis(3,3,3-trifluoropropyl)succinamide], in series [1] (setting [3]), the “0.5 μM HLM (% Remaining)” value was found to be 100%. Also, the IC50 in the series on Notch 1 (setting [7]) turned out to be 5.2 nM; with Notch 3 (setting [8]) it was 13 nM. In addition, the “0.5 μM MsLM (% Remaining)” value in series [2] (setting [6]) was determined as 95%.

Consider `COc1c(C#N)ccc2c1NC(=O)[C@@H](NC(=O)[C@H](CCC(F)(F)F)[C@H](CCC(F)(F)F)C(N)=O)N=C2c1ccccc1` [Example 15, (2R,3S)—N-((3S)-8-cyano-9-methoxy-2-oxo-5-phenyl-2,3-dihydro-1H-1,4-benzodiazepin-3-yl)-2,3-bis(3,3,3-trifluoropropyl)succinamide], for which the “0.5 μM HLM (% Remaining)” value in series [1] (setting [3]) worked out at 100%. Further, the IC50 with Notch 1 (setting [4]) is 12 nM; in the series on Notch 3 (setting [5]), 16 nM. In series [2] (setting [6]), the “0.5 μM MsLM (% Remaining)” value is reported as 93%.

In the case of `NC(=O)[C@@H](CCC(F)(F)F)[C@@H](CCC(F)(F)F)C(=O)N[C@H]1N=C(c2ccccc2)c2ccc(Cl)c(Cl)c2NC1=O` [Example 16, (2R,3S)—N-((3S)-8,9-dichloro-2-oxo-5-phenyl-2,3-dihydro-1H-1,4-benzodiazepin-3-yl)-2,3-bis(3,3,3-trifluoropropyl)succinamide], the “0.5 μM HLM (% Remaining)” value in series [1] (setting [3]) is reported as 80%. Further, the figures for the half-inhibitory concentration (IC50) in the series on Notch 1 (setting [4]) and in the series with Notch 3 (setting [5]) were 4.2 nM and 6.4 nM, respectively. In series [2] (setting [6]), the “0.5 μM MsLM (% Remaining)” value is given as 91%.

Turning to `NC(=O)[C@@H](CCC(F)(F)F)[C@@H](CCC(F)(F)F)C(=O)N[C@H]1N=C(c2ccccc2)c2cccc(F)c2NC1=O` [Example 17, (2R,3S)—N-((3S)-9-fluoro-2-oxo-5-phenyl-2,3-dihydro-1H-1,4-benzodiazepin-3-yl)-2,3-bis(3,3,3-trifluoropropyl)succinamide], the “0.5 μM HLM (% Remaining)” value in series [1] (setting [3]) was found to be 100%. In addition, the IC50 with Notch 1 (setting [4]) stood at 3.6 nM; in the series on Notch 3 (setting [5]), 7.1 nM. Besides, in series [2] (setting [6]), the “0.5 μM MsLM (% Remaining)” value is listed as 96%.

On to `NC(=O)[C@@H](CCC(F)(F)F)[C@@H](CCC(F)(F)F)C(=O)N[C@H]1N=C(c2ccccc2)c2cccc(Cl)c2NC1=O` [Example 18, (2R,3S)—N-((3S)-9-chloro-2-oxo-5-phenyl-2,3-dihydro-1H-1,4-benzodiazepin-3-yl)-2,3-bis(3,3,3-trifluoropropyl)succinamide], for which the “0.5 μM HLM (% Remaining)” value in series [1] (setting [3]) turned out to be 100%. The IC50 in the series on Notch 1 (setting [4]) was 0.53 nM; with Notch 3 (setting [5]), 2.3 nM. Besides, the “0.5 μM MsLM (% Remaining)” value in series [2] (setting [6]) came out at 100%.
